PubChem BioAssay (NCI)
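Step 1: Grow cells in 96-well plates. Step 2: Expose to compound for 48 hours at 5 concentrations. Step 3: Interpolate endpoints linearly; if unreached, use highest concentration. GI50: concentration for 50% inhibition of growth. The concentration for full growth arrest is given as TGI.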

Columns and labels:
Experiment in all cases: growth of human tumour cells (NCI), 48 h
CAKI-1 renal = tested on: CAKI-1 renal
COLO 205 colon = tested on: COLO 205 colon
MCF7 breast = tested on: MCF7 breast
MDA-N = tested on: MDA-N
NCI-H460 lung = tested on: NCI-H460 lung
OVCAR-4 ovarian = tested on: OVCAR-4 ovarian
OVCAR-5 ovarian = tested on: OVCAR-5 ovarian
SF-539 CNS = tested on: SF-539 CNS
SN12C renal = tested on: SN12C renal
SNB-19 CNS = tested on: SNB-19 CNS
U251 CNS = tested on: U251 CNS

SMILES | TGI (CAKI-1 renal) | TGI (COLO 205 colon) | TGI (MCF7 breast) | TGI (MDA-N) | TGI (NCI-H460 lung) | TGI (OVCAR-4 ovarian) | TGI (OVCAR-5 ovarian) | TGI (SF-539 CNS) | TGI (SN12C renal) | TGI (SNB-19 CNS) | TGI (U251 CNS) | GI50 (CAKI-1 renal) | GI50 (COLO 205 colon) | GI50 (MCF7 breast) | GI50 (NCI-H460 lung) | GI50 (OVCAR-4 ovarian) | GI50 (SF-539 CNS) | GI50 (SN12C renal) | GI50 (SNB-19 CNS) | GI50 (U251 CNS)
OC1(c2ccc3ccccc3c2)c2ccc3ccccc3c2C2=NCCN21 (centres undefined) | > 100 µM | > 100 µM | > 100 µM | > 100 µM | > 100 µM | 85.8 µM | > 100 µM | > 100 µM | > 100 µM | > 100 µM | > 100 µM |  |  |  |  |  |  |  |  | 
O=c1cc(-c2nc3ccccc3[nH]2)[nH]c2nc(-c3nc4ccccc4[nH]3)cc(-c3ccc(Cl)cc3)c12 | 76 µM | 24.6 µM | 36.3 µM | 59.6 µM | 43.6 µM | 95.4 µM | 54.3 µM | 31.8 µM | 46.9 µM | > 100 µM | 40 µM |  |  |  |  |  |  |  |  | 
CCOC(=O)[C@H]1C[C@]23CN(C(=O)OC(C)(C)C)CC[C@H]2CCC2(SCCCS2)[C@@H]3N1C | > 100 µM | > 100 µM | > 100 µM | > 100 µM | > 100 µM | 74.2 µM | > 100 µM | > 100 µM | 44.3 µM | > 100 µM | > 100 µM |  |  |  |  |  |  |  |  | 
Cc1ccc(S(=O)(=O)NCCSS(=O)(=O)c2ccc(C)cc2)cc1 |  | > 100 µM | 41 µM | 56.8 µM | > 100 µM | > 100 µM |  |  | 86.3 µM | > 100 µM | 53.8 µM |  |  |  |  |  |  |  |  | 
CCOc1cc(NC(C)=O)ccc1C(=O)NN1C(=O)CSC1c1ccc(O)c(OC)c1 (centres undefined) | > 100 µM | > 100 µM | > 100 µM | > 100 µM | > 100 µM | > 100 µM | > 100 µM | > 100 µM | > 100 µM | > 100 µM |  |  |  |  |  |  |  |  |  | 
C=CCC1=CC2(OC)C(=O)C(OC)(OC)C1C1C(OC)(OC)C(=O)C(OC)=CC12CC=C (centres undefined) | > 100 µM | > 100 µM | > 100 µM | > 100 µM | > 100 µM | > 100 µM | > 100 µM | > 100 µM | > 100 µM | > 100 µM | > 100 µM |  |  |  |  |  |  |  |  | 
CCOc1ccc2c(c1)NC(=O)C(C1OC(c3ccccc3)=CC1=O)S2 (centres undefined) | > 100 µM | 28.1 µM | 30.4 µM | 77.4 µM | 39 µM |  | 36.5 µM | 45 µM | 77.9 µM | > 100 µM | 49.2 µM |  |  |  |  |  |  |  |  | 
FC(F)(F)C1=NC(=NNc2nnc(-c3ccccc3)c(-c3ccccc3)n2)N=C(C(F)(F)F)C1 | > 100 µM | 61.4 µM | > 100 µM |  | > 100 µM | > 100 µM | > 100 µM | > 100 µM | > 100 µM | > 100 µM | > 86.3 µM |  |  |  |  |  |  |  |  | 
CC(C)Cc1cccc(C(C)C)c1NC(=O)CCC(=O)N/N=C1\C(=N/NC(=O)CCC(=O)Nc2c(C(C)C)cccc2C(C)C)C(c2ccc3c(c2)OCO3)Oc2ccccc21 (centres undefined) | > 100 µM | > 100 µM |  |  | > 100 µM | > 100 µM | > 100 µM | > 100 µM | > 100 µM | > 100 µM | > 100 µM |  |  |  |  |  |  |  |  | 
CN(C)CCC(C(=O)C(C)(C)C)c1ccccn1 (centres undefined) | > 100 µM | > 100 µM | > 100 µM | > 100 µM | > 100 µM | > 100 µM | > 100 µM |  | > 100 µM | > 100 µM | > 100 µM |  |  |  |  |  |  |  |  | 
C=C1C(=O)OC2/C=C(\C)CC(O)/C=C(/CO)CC(OC(=O)/C(C)=C/C)C12 (centres undefined) | 238 µM | 96.8 µM | 68.2 µM |  | 168 µM | 319 µM | 297 µM | 115 µM | 437 µM | 353 µM | 303 µM |  |  |  |  |  |  |  |  | 
C[C@H](O)C(=O)SC[C@H](NC(=O)CC[C@@H](N)C(=O)O)C(=O)NCC(=O)O | > 100 µM | > 100 µM |  |  | > 100 µM | > 100 µM | > 100 µM |  | > 100 µM |  | > 100 µM |  |  |  |  |  |  |  |  | 
CS(=O)(=O)OCc1c(O)c2c(c(O)c1COS(C)(=O)=O)C(=O)C=CC2=O | > 100 µM | > 100 µM |  |  |  | > 100 µM | > 100 µM | > 100 µM | > 100 µM |  | > 100 µM |  |  |  |  |  |  |  |  | 
CC[N+](CC)(CC)/C(=N/S(=O)(=O)c1cc(C)c(Cl)cc1S)[N-]S(=O)(=O)c1ccc(Cl)cc1 | > 100 µM |  | > 100 µM | > 100 µM | > 100 µM | > 100 µM | > 100 µM | > 100 µM |  |  | > 100 µM |  |  |  |  |  |  |  |  | 
COc1ccc(-n2cc(-c3ccc(OC)c(OC)c3)nc2SCc2ccccc2)cc1Cl | > 100 µM | 45.4 µM | > 100 µM |  | > 100 µM | > 100 µM |  | 79.5 µM | > 100 µM | > 100 µM | > 100 µM | 41.7 µM | 19 µM | 24 µM | 25.5 µM | 20.1 µM | 24.5 µM | 38.1 µM | 32.5 µM | 22.4 µM
CC(O)=NC(Cc1ccc2ccccc2c1)C(O)=NC(Cc1ccc(Cl)cc1)C(O)=NC(Cc1c[nH]c2ccccc12)C(O)=NC(CO)C(O)=NC(Cc1ccc(O)cc1)C(O)=NC(CCCN=C(N)N)C(O)=NC(CC(C)C)C(O)=NC(CCCN=C(N)N)C(=O)N1CCCC1C(O)=NC(C)C(=N)O (centres undefined) | > 100 µM | > 100 µM | > 100 µM | > 100 µM | > 100 µM | > 100 µM | > 100 µM | 99.7 µM | > 100 µM | > 100 µM | 61.4 µM |  |  |  |  |  |  |  |  | 
C[C@]12CC[C@H](O)CC1=CC[C@@H]1[C@@H]2CC[C@]2(C)C(=O)CC[C@@H]12 | > 100 µM | > 100 µM | > 100 µM | > 100 µM |  | > 100 µM | > 100 µM | > 100 µM | > 100 µM | > 100 µM | > 100 µM |  |  |  |  |  |  |  |  | 
CCCc1ccc(OCC(=O)N/N=C/c2c(-c3ccccc3)[nH]c3ccccc23)cc1 | > 100 µM | 14.3 µM | 54.3 µM |  | 22.7 µM | 42.7 µM | 58.6 µM | 42.5 µM | 32.1 µM | > 100 µM | 20.3 µM |  |  |  |  |  |  |  |  | 
O=C(/N=C/c1c(O)c2ccccc2oc1=O)NC1CCCCC1 |  | > 100 µM |  |  | > 100 µM | > 100 µM | > 100 µM | > 100 µM | > 100 µM | > 100 µM |  |  |  |  |  |  |  |  |  | 
CO[C@]12C[C@H](CNC(=O)c3cc(Br)c(Br)[nH]3)O[C@H]1NC(=O)N2 | > 100 µM | > 100 µM | > 100 µM |  | > 100 µM | > 100 µM | > 100 µM | > 100 µM | > 100 µM | > 100 µM | > 100 µM |  |  |  |  |  |  |  |  | 
NC1=NS(=O)(=O)Nc2nc(-c3cccs3)[nH]c21 | > 100 µM | > 100 µM |  |  | > 100 µM | > 100 µM | > 100 µM | > 100 µM | > 100 µM | > 100 µM | > 100 µM |  |  |  |  |  |  |  |  | 
C[n+]1c(-c2ccc(/C=N\NC(=O)c3ccc(C(=O)N/N=C/c4ccc(-c5cn6ccsc6[n+]5C)cc4)cc3)cc2)cn2ccsc21 | 41 µM | 54.3 µM | 47.9 µM | 78.3 µM | 42.1 µM | 57.8 µM | 36.3 µM | 56.1 µM | 43.8 µM | 51.9 µM | 48.9 µM |  |  |  |  |  |  |  |  | 
COc1c2ccoc2c(S(=O)(=O)Nc2ccc(Cl)cc2)c2oc(C)cc(=O)c12 | > 95.9 µM | > 100 µM | > 100 µM |  | > 100 µM | > 67.2 µM | > 100 µM | > 93.9 µM | > 100 µM | > 100 µM | > 100 µM |  |  |  |  |  |  |  |  | 
